Measurements: patent US20230077362A1 (CORTEVA AGRISCIENCE LLC, priority 2019, published 2023)

Legend:
[1] = tested on: Beet Armyworm (Spodoptera exigua) ("BAW"), second instar larvae; test: Bioassay on beet armyworm (BAW), 128-well diet tray assay; type: in vivo; details: Spodoptera exigua, read-out: BAW (Biological Results, rating)
Outline: (§1)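 Sealed trays, 25° C., 14:10 light:dark, 5–7 d. Per-well % mortality recorded, mean of eight wells reported.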

[2] = tested on: Cabbage Looper (Trichoplusia ni) ("CL"), second instar larvae; test: Bioassay on cabbage looper (CL), 128-well diet tray assay; type: in vivo; details: Trichoplusia ni, read-out: CL (Biological Results, rating)
Outline: as §1

Row | SMILES | pest or weed control at 50 µg/cm2 [1] | pest or weed control at 50 µg/cm2 [2]
1 | Cc1ccc(COCC(F)(F)F)c(N2C(=O)CS/C2=N\C(=O)Nc2ccc(-c3ncn(-c4ccc(SC(F)(F)F)cc4)n3)cc2Cl)c1 [Compound J226, (Z)-1-(2-Chloro-4-(1-(4-((trifluoromethyl)thio)phenyl)-1H-1,2,4-triazol-3-yl)phenyl)-3-(3-(5-methyl-2-((2,2,2-trifluoroethoxy)methyl)phenyl)-4-oxothiazolidin-2-ylidene)urea] | 50 to 100% | 50 to 100%
2 | Cc1ccc(C(C)C)c(N2C(=O)CS/C2=N\C(=O)Nc2ccc(-c3ncn(-c4ccc(OC(F)(F)F)cc4)n3)cc2C#N)c1 [Compound J227, (Z)-1-(2-cyano-4-(1-(4-(trifluoromethoxy)phenyl)-1H-1,2,4-triazol-3-yl)phenyl)-3-(3-(2-isopropyl-5-methylphenyl)-4-oxothiazolidin-2-ylidene)urea] | 50 to 100% | 50 to 100%
3 | COC(C)c1ccc(C)cc1N1C(=O)CS/C1=N\C(=O)Nc1ccc(-c2ncn(-c3ccc(OC(F)(F)F)cc3)n2)cc1C#N (stereo not drawn) [Compound J228, (Z)-1-(2-Cyano-4-(1-(4-(trifluoromethoxy)phenyl)-1H-1,2,4-triazol-3-yl)phenyl)-3-(3-(2-(1-methoxyethyl)-5-methylphenyl)-4-oxothiazolidin-2-ylidene)urea] | 50 to 100% | 50 to 100%
4 | COC(C)c1ccc(C)cc1N1C(=O)CS/C1=N\C(=O)Nc1ccc(-c2ncn(-c3ccc(SC(F)(F)F)cc3)n2)cc1C (stereo not drawn) [Compound J233, (Z)-1-(3-(2-(1-Methoxyethyl)-5-methylphenyl)-4-oxothiazolidin-2-ylidene)-3-(2-methyl-4-(1-(4-((trifluoromethyl)thio)phenyl)-1H-1,2,4-triazol-3-yl)phenyl)urea] | 50 to 100% | 50 to 100%
5 | COC(C)c1ccc(C)cc1N1C(=O)CS/C1=N\C(=O)Nc1ccc(-c2ncn(-c3ccc(OC(F)(F)F)cn3)n2)cc1F (stereo not drawn) [Compound J236, (Z)-1-(2-Fluoro-4-(1-(5-(trifluoromethoxy)pyridin-2-yl)-1H-1,2,4-triazol-3-yl)phenyl)-3-(3-(2-(1-methoxyethyl)-5-methylphenyl)-4-oxothiazolidin-2-ylidene)urea] | 50 to 100% | 50 to 100%
6 | Cc1ccc(COCC(F)(F)F)c(N2C(=O)CS/C2=N\C(=O)Nc2ccc(-c3ncn(-c4ccc(OC(F)(F)F)cn4)n3)cc2F)c1 [Compound J237, (Z)-1-(2-Fluoro-4-(1-(5-(trifluoromethoxy)pyridin-2-yl)-1H-1,2,4-triazol-3-yl)phenyl)-3-(3-(5-methyl-2-((2,2,2-trifluoroethoxy)methyl)phenyl)-4-oxothiazolidin-2-ylidene)urea] | 50 to 100% | 50 to 100%
7 | CC(C)c1ccc(N(C)C)cc1N1C(=O)CS/C1=N\C(=O)Nc1ccc(-c2ncn(-c3ccc(OC(F)(F)F)cn3)n2)cc1F [Compound J238, (Z)-1-(3-(5-(Dimethylamino)-2-isopropylphenyl)-4-oxothiazolidin-2-ylidene)-3-(2-fluoro-4-(1-(5-(trifluoromethoxy)pyridin-2-yl)-1H-1,2,4-triazol-3-yl)phenyl)urea] | 50 to 100% | 50 to 100%
8 | COc1ccc(C(C)C)c(N2C(=O)CS/C2=N\C(=O)Nc2ccc(-c3ncn(-c4ccc(OC(F)(F)F)cn4)n3)cc2F)c1 [Compound J239, (Z)-1-(2-Fluoro-4-(1-(5-(trifluoromethoxy)pyridin-2-yl)-1H-1,2,4-triazol-3-yl)phenyl)-3-(3-(2-isopropyl-5-methoxyphenyl)-4-oxothiazolidin-2-ylidene)urea] | 50 to 100% | 50 to 100%
9 | COC(C)c1ccc(C)cc1N1C(=O)CS/C1=N\C(=O)Nc1ccc(-c2ncn(-c3ccc(OC(F)(F)F)cn3)n2)cc1C (stereo not drawn) [Compound J240, (Z)-1-(3-(2-(1-Methoxyethyl)-5-methylphenyl)-4-oxothiazolidin-2-ylidene)-3-(2-methyl-4-(1-(5-(trifluoromethoxy)pyridin-2-yl)-1H-1,2,4-triazol-3-yl)phenyl)urea] | 50 to 100% | 50 to 100%
10 | Cc1ccc(COCC(F)(F)F)c(N2C(=O)CS/C2=N\C(=O)Nc2ccc(-c3ncn(-c4ccc(OC(F)(F)F)cn4)n3)cc2C)c1 [Compound J241, (Z)-1-(3-(5-Methyl-2-((2,2,2-trifluoroethoxy)methyl)phenyl)-4-oxothiazolidin-2-ylidene)-3-(2-methyl-4-(1-(5-(trifluoromethoxy)pyridin-2-yl)-1H-1,2,4-triazol-3-yl)phenyl)urea] | 50 to 100% | 50 to 100%
11 | CC(C)c1ccc(N(C)C)cc1N1C(=O)CS/C1=N\C(=O)Nc1ccc(-c2ncn(-c3ccc(OC(F)(F)F)cc3)n2)cc1C#N [Compound J242, (Z)-1-(2-Cyano-4-(1-(4-(trifluoromethoxy)phenyl)-1H-1,2,4-triazol-3-yl)phenyl)-3-(3-(5-(dimethylamino)-2-isopropylphenyl)-4-oxothiazolidin-2-ylidene)urea] | 50 to 100% | 50 to 100%
12 | Cc1ccc(OCCC(F)(F)F)c(N2C(=O)CS/C2=N\C(=O)Nc2ccc(-c3ncn(-c4ccc(OC(F)(F)F)cc4)n3)cc2C#N)c1 [Compound J243, (Z)-1-(2-Cyano-4-(1-(4-(trifluoromethoxy)phenyl)-1H-1,2,4-triazol-3-yl)phenyl)-3-(3-(5-methyl-2-(3,3,3-trifluoropropoxy)phenyl)-4-oxothiazolidin-2-ylidene)urea] | 50 to 100% | 50 to 100%
13 | Cc1ccc(C(F)(F)F)c(N2C(=O)CS/C2=N\C(=O)Nc2ccc(-c3ncn(-c4ccc(OC(F)(F)F)cc4)n3)cc2C#N)c1 [Compound J244, (Z)-1-(2-Cyano-4-(1-(4-(trifluoromethoxy)phenyl)-1H-1,2,4-triazol-3-yl)phenyl)-3-(3-(5-methyl-2-(trifluoromethyl)phenyl)-4-oxothiazolidin-2-ylidene)urea] | 50 to 100% | 50 to 100%
14 | Cc1ccc(COCC(F)(F)F)c(N2C(=O)CS/C2=N\C(=O)Nc2ccc(-c3ncn(-c4ccc(OC(F)(F)F)cc4)n3)cc2C#N)c1 [Compound J245, (Z)-1-(2-Cyano-4-(1-(4-(trifluoromethoxy)phenyl)-1H-1,2,4-triazol-3-yl)phenyl)-3-(3-(5-methyl-2-((2,2,2-trifluoroethoxy)methyl)phenyl)-4-oxothiazolidin-2-ylidene)urea] | 50 to 100% | 50 to 100%
15 | COc1ccc(C(C)C)c(N2C(=O)CS/C2=N\C(=O)Nc2ccc(-c3ncn(-c4ccc(OC(F)(F)F)cc4)n3)cc2C#N)c1 [Compound J246, (Z)-1-(2-Cyano-4-(1-(4-(trifluoromethoxy)phenyl)-1H-1,2,4-triazol-3-yl)phenyl)-3-(3-(2-isopropyl-5-methoxyphenyl)-4-oxothiazolidin-2-ylidene)urea] | 50 to 100% | 50 to 100%
16 | CCCc1ccc(N(C)C)cc1N1C(=O)CS/C1=N\C(=O)Nc1ccc(-c2ncn(-c3ccc(OC(F)(F)F)cc3)n2)cc1C#N [Compound J247, (Z)-1-(2-Cyano-4-(1-(4-(trifluoromethoxy)phenyl)-1H-1,2,4-triazol-3-yl)phenyl)-3-(3-(5-(dimethylamino)-2-propylphenyl)-4-oxothiazolidin-2-ylidene)urea] | 50 to 100% | 50 to 100%
17 | CCCc1ccc(C)cc1N1C(=O)CS/C1=N\C(=O)Nc1ccc(-c2ncn(-c3ccc(OC(F)(F)F)cc3)n2)cc1C#N [Compound J248, (Z)-1-(2-Cyano-4-(1-(4-(trifluoromethoxy)phenyl)-1H-1,2,4-triazol-3-yl)phenyl)-3-(3-(5-methyl-2-propylphenyl)-4-oxothiazolidin-2-ylidene)urea] | 50 to 100% | 50 to 100%
18 | Cc1ccc(COCC(F)(F)F)c(N2C(=O)CS/C2=N\C(=O)Nc2ccc(-c3ncn(-c4ccc(OC(F)(F)F)cn4)n3)cc2Cl)c1 [Compound J249, (Z)-1-(2-Chloro-4-(1-(5-(trifluoromethoxy)pyridin-2-yl)-1H-1,2,4-triazol-3-yl)phenyl)-3-(3-(5-methyl-2-((2,2,2-trifluoroethoxy)methyl)phenyl)-4-oxothiazolidin-2-ylidene)urea] | 50 to 100% | 50 to 100%
19 | COC(C)c1ccc(C)cc1N1C(=O)CS/C1=N\C(=O)Nc1ccc(-c2ncn(-c3ccc(OC(F)(F)F)cn3)n2)cc1Cl (stereo not drawn) [Compound J250, (Z)-1-(2-Chloro-4-(1-(5-(trifluoromethoxy)pyridin-2-yl)-1H-1,2,4-triazol-3-yl)phenyl)-3-(3-(2-(1-methoxyethyl)-5-methylphenyl)-4-oxothiazolidin-2-ylidene)urea] | 50 to 100% | 50 to 100%
20 | Cc1cc(-c2ncn(-c3ccc(OC(F)(F)F)cn3)n2)ccc1NC(=O)/N=C1\SCC(=O)N1c1cc(N(C)C)ccc1C(C)C [Compound J251, (Z)-1-(3-(5-(Dimethylamino)-2-isopropylphenyl)-4-oxothiazolidin-2-ylidene)-3-(2-methyl-4-(1-(5-(trifluoromethoxy)pyridin-2-yl)-1H-1,2,4-triazol-3-yl)phenyl)urea] | 50 to 100% | 50 to 100%
21 | COc1ccc(C(C)C)c(N2C(=O)CS/C2=N\C(=O)Nc2ccc(-c3ncn(-c4ccc(OC(F)(F)F)cn4)n3)cc2C)c1 [Compound J252, (Z)-1-(3-(2-Isopropyl-5-methoxyphenyl)-4-oxothiazolidin-2-ylidene)-3-(2-methyl-4-(1-(5-(trifluoromethoxy)pyridin-2-yl)-1H-1,2,4-triazol-3-yl)phenyl)urea] | 50 to 100% | 50 to 100%
